From PubChem BioAssay (NCI) come the findings set out here.

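Dose response: 5 concentrations. Exposure: 48 h. Format: 96-well plates. Endpoint: linear interpolation; highest concentration if not reached. At the TGI there is no net growth.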

Test systems include ACHN renal; CAKI-1 renal; CCRF-CEM leukemia; HL-60(TB) leukemia; HOP-62 NSCLC; HT29 colon; IGROV1 ovarian; K-562 leukemia; NCI/ADR-RES ovarian; OVCAR-3 ovarian; SF-268 CNS; T-47D breast; HOP-92 NSCLC; MDA-MB-435; NCI-H522 lung; U251 CNS; SK-OV-3 ovarian.
Holding throughout (assay): NCI-60 cell line screen, 48 h

For `CC(=O)Nc1nc2c(=O)c3ccccc3sc2s1`, the TGI with ACHN renal, in the experiment on CAKI-1 renal, in the experiment with CCRF-CEM leukemia, with HL-60(TB) leukemia, in the experiment on HOP-62 NSCLC and with HT29 colon was > 100 µM in each case. Moreover, the TGI with IGROV1 ovarian, with K-562 leukemia, with NCI/ADR-RES ovarian, with OVCAR-3 ovarian, in the experiment with SF-268 CNS and in the experiment with T-47D breast was > 100 µM in each case.

On to `C(=NC12CC3CC(CC(C3)C1)C2)C1CCCCC1`, for which the TGI with ACHN renal, with CAKI-1 renal, in the experiment with CCRF-CEM leukemia, in the experiment on HL-60(TB) leukemia, with HOP-62 NSCLC and with HOP-92 NSCLC was > 100 µM throughout. Further, the TGI with HT29 colon, with IGROV1 ovarian, with K-562 leukemia, in the experiment with MDA-MB-435, with NCI-H522 lung and in the experiment with NCI/ADR-RES ovarian was > 100 µM throughout. Moreover, the TGI with OVCAR-3 ovarian, in the experiment with SF-268 CNS and with U251 CNS was > 100 µM throughout.

As for `CN1S(=O)(=O)N(C)P12(N=P(CP(=NP13(N(C)S(=O)(=O)N1C)N(C)S(=O)(=O)N3C)(c1ccccc1)c1ccccc1)(c1ccccc1)c1ccccc1)N(C)S(=O)(=O)N2C`, the TGI in the experiment on ACHN renal, in the experiment with CAKI-1 renal, in the experiment with CCRF-CEM leukemia, in the experiment with HL-60(TB) leukemia, in the experiment with HOP-62 NSCLC and in the experiment with HOP-92 NSCLC was > 100 µM in each case. For the same compound, the TGI in the experiment on HT29 colon, in the experiment with IGROV1 ovarian, with K-562 leukemia, in the experiment with NCI-H522 lung, with OVCAR-3 ovarian and with SF-268 CNS was > 100 µM each time. Further, the TGI in the experiment with SK-OV-3 ovarian and with U251 CNS was > 100 µM each time.

For `COC(=O)C1CC2CC1C1C2SC(F)(F)C1(F)F` (stereo not given), the TGI with ACHN renal, in the experiment with CAKI-1 renal, in the experiment on HOP-62 NSCLC, in the experiment on IGROV1 ovarian, with MDA-MB-435 and in the experiment with NCI-H522 lung was > 100 µM in each case. Also, the TGI with NCI/ADR-RES ovarian, with OVCAR-3 ovarian, in the experiment on SF-268 CNS, with SK-OV-3 ovarian, with T-47D breast and in the experiment with U251 CNS was > 100 µM in each case.

On to `COc1ccc(OC)c(/C=C2/C(=O)N=C(NC(C)=O)N2C)c1`, for which the TGI in the experiment on ACHN renal, with CAKI-1 renal, with CCRF-CEM leukemia, in the experiment on HL-60(TB) leukemia, in the experiment with HOP-62 NSCLC and in the experiment with HOP-92 NSCLC was > 100 µM in each case. In addition, the TGI in the experiment on HT29 colon, in the experiment with IGROV1 ovarian, in the experiment with MDA-MB-435, in the experiment on NCI-H522 lung, in the experiment with NCI/ADR-RES ovarian and with OVCAR-3 ovarian was > 100 µM in each case. Further, the TGI with SF-268 CNS, in the experiment with SK-OV-3 ovarian and with U251 CNS was > 100 µM in each case.

On to `CCN(CC)c1ccc(Cl)c2c1C(O)(C(C)C)C2(C)C` (stereo not given), for which the TGI was 31.3 µM with ACHN renal; 34.2 µM in the experiment with CAKI-1 renal; 39.9 µM in the experiment on CCRF-CEM leukemia; 38.8 µM with HL-60(TB) leukemia; 39 µM with HOP-62 NSCLC; 24.5 µM in the experiment on HT29 colon. In addition, the TGI came to 27.8 µM with IGROV1 ovarian; 43.9 µM in the experiment on K-562 leukemia; 29.9 µM with NCI-H522 lung; 25.2 µM with OVCAR-3 ovarian; 44.2 µM in the experiment on SF-268 CNS; 29.3 µM in the experiment on SK-OV-3 ovarian. In the experiment on U251 CNS, this compound showed a TGI of 30.5 µM.

For the compound `Cc1nn(C(=O)Cc2ccccc2)c2c1C(c1ccc(/C=C/c3ccccc3)cc1)SC(N)=N2` (stereo not given), the TGI in the experiment with ACHN renal, in the experiment on CAKI-1 renal, with CCRF-CEM leukemia, in the experiment with HL-60(TB) leukemia, with HOP-62 NSCLC and in the experiment with HT29 colon was > 100 µM throughout. Besides, the TGI in the experiment with IGROV1 ovarian, in the experiment on K-562 leukemia, in the experiment with MDA-MB-435, with NCI-H522 lung, with SF-268 CNS and with SK-OV-3 ovarian was > 100 µM throughout. In addition, the TGI with T-47D breast is > 100 µM.

For the compound `CC1(C)CC(=O)C(C(=O)Nc2cccs2)=C(O)C1`, the TGI is > 100 µM in the experiment on ACHN renal; 43.6 µM with CAKI-1 renal; 95.3 µM in the experiment on CCRF-CEM leukemia; 57.7 µM with HL-60(TB) leukemia; > 100 µM with HOP-62 NSCLC; 68.2 µM in the experiment with HOP-92 NSCLC. The TGI with HT29 colon, in the experiment on IGROV1 ovarian, in the experiment on K-562 leukemia, in the experiment on NCI-H522 lung, in the experiment on OVCAR-3 ovarian and in the experiment on SF-268 CNS was > 100 µM throughout. The TGI with SK-OV-3 ovarian and in the experiment on U251 CNS was > 100 µM throughout.

Consider `COC(=O)N/N=c1\cc(C(=O)Nc2ccc(C)c(C)c2)oc2cc(O)ccc12`, for which the TGI with ACHN renal, with CAKI-1 renal, in the experiment with CCRF-CEM leukemia, in the experiment on HL-60(TB) leukemia, in the experiment with HOP-62 NSCLC and in the experiment on HOP-92 NSCLC was > 100 µM each time. The TGI in the experiment on HT29 colon, with IGROV1 ovarian, in the experiment on K-562 leukemia, in the experiment with NCI-H522 lung, in the experiment on OVCAR-3 ovarian and in the experiment with SF-268 CNS was > 100 µM throughout. Further, the TGI in the experiment on SK-OV-3 ovarian and with U251 CNS was > 100 µM each time.

Regarding `COc1cc(Nc2nc3cc(C)ccc3nc2-c2ccccc2)cc(OC)c1OC`, the TGI was > 100 µM in the experiment with ACHN renal; > 100 µM in the experiment on CAKI-1 renal; > 100 µM in the experiment with CCRF-CEM leukemia; 54.5 µM with HL-60(TB) leukemia; > 100 µM in the experiment on HOP-92 NSCLC; 33.7 µM in the experiment with HT29 colon. Moreover, the TGI in the experiment on IGROV1 ovarian was > 100 µM; in the experiment with K-562 leukemia it was > 100 µM; in the experiment on NCI-H522 lung it was 90.6 µM; with OVCAR-3 ovarian it was 41.8 µM; in the experiment on SF-268 CNS, > 100 µM; with SK-OV-3 ovarian it was > 100 µM. The TGI in the experiment on U251 CNS is > 100 µM.
